# Where two headings read alike, the source gives them in different places.
# Tests used:
# Format in all cases: in vivo
# [1] = system: galium (catchweed bedstraw, Galium aparine); assay: Test C pre-/postemergence: galium
# Description: (§1) Seeds of plant species selected from blackgrass (Alopecurus myosuroides), bromegrass, downy (downy bromegrass, Bromus tectorum), foxtail, green (green foxtail, Setaria viridis), ryegrass, Italian (Italian ryegrass, Lolium multiflorum), winter wheat (Triticum aestivum), wild oat (Avena fatua), galium (catchweed bedstraw, Galium aparine), bermudagrass (Cynodon dactylon), surinam grass (Brachiaria decumbens), cocklebur (common cocklebur, Xanthium strumarium), corn (Zea mays), large crabgrass (Digitaria sanguinalis), woolly cupgrass (Eriochloa villosa), foxtail, giant (giant foxtail, Setaria faberii), goosegrass (Eleusine indica), johnsongrass (Sorghum halepense), kochia (Kochia scoparia), lambsquarters (Chenopodium album), morningglory (Ipomoea coccinea), nightshade (eastern black nightshade, Solanum ptycanthum), nutsedge, yellow (yellow nutsedge, Cyperus esculentus), pigweed (Amaranthus retroflexus), ragweed (common ragweed, Ambrosia elation), soybean (Glycine max), common (oilseed) sunflower (Helianthus annuus), Russian thistle (Salsola kali) and velvetleaf (Abutilon theophrasti) were planted into a blend of loam soil and sand and treated preemergence with test chemicals formulated in a non-phytotoxic solvent mixture which included a surfactant.
# (§2) At the same time, plants selected from these crop and weed species and also barley (winter barley, Hordeum vulgare), canarygrass (Phalaris minor), chickweed (common chickweed, Stellaria media) windgrass (Apera spica-venti) and deadnettle (henbit deadnettle, Lamium amplexicaule) were planted in pots containing Redi-Earth® planting medium (Scotts Company, 14111 Scottslawn Road, Marysville, Ohio 43041) comprising spaghnum peat moss, vermiculite, wetting agent and starter nutrients and treated with postemergence applications of test chemicals formulated in the same manner. Plants ranged in height from 2 to 18 cm (1- to 4-leaf stage) for postemergence treatments.
# (§3) Treated plants and controls were maintained in a greenhouse for 13 to 15 days, after which time all species were compared to controls and visually evaluated. Plant response ratings, summarized in Table C, are based on a scale of 0 to 100 where 0 is no effect and 100 is complete control. A dash (-) response means no test result.
# [2] = system: pigweed (Amaranthus retroflexus); assay: Test A pre-/postemergence: pigweed; conditions: for pest or weed control at 125 g/ha / pest or weed control at 500 g/ha: Amaranthus retroflexus, 240 h
# Outline: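 Each species received preemergence soil-directed spraying and, at the same time, postemergence treatment of seedlings 2–10 cm tall. Formulation: non-phytotoxic solvent mixture including surfactant. Response assessed visually about ten days on, relative to untreated controls, 0–100 scale.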
# [3] = system: morningglory (Ipomoea coccinea); assay: Test C pre-/postemergence: morningglory
# Description: as §1, §2, §3
# wild oat (Avena fatua) = assay: Test C pre-/postemergence: wild oat
# Description: as §1, §2, §3
# [4] = system: nutsedge, yellow (yellow nutsedge, Cyperus esculentus); assay: Test C pre-/postemergence: nutsedge, yellow
# Description: as §1, §2, §3
# [5] = system: winter wheat (Triticum aestivum); assay: Test C pre-/postemergence: winter wheat
# Description: as §1, §2, §3
# [6] = system: blackgrass (Alopecurus myosuroides); assay: Test C pre-/postemergence: blackgrass
# Description: as §1, §2, §3
# [7] = system: pigweed (Amaranthus retroflexus); assay: Test C pre-/postemergence: pigweed
# Description: as §1, §2, §3
# [8] = system: ragweed (common ragweed, Ambrosia elation); assay: Test C pre-/postemergence: ragweed
# Description: as §1, §2, §3
# [9] = Postemergence, 31 g ai/ha, scale 0 to 100 (0 no effect, 100 complete control)
# [10] = Postemergence, 62 g ai/ha, scale 0 to 100 (0 no effect, 100 complete control)
# [11] = Postemergence, 125 g ai/ha, scale 0 to 100, 0 no effect, 100 complete control
# [12] = Postemergence, 250 g ai/ha, scale 0 to 100
# [13] = Preemergence, 31 g ai/ha, scale of 0 to 100, 0 is no effect, 100 is complete control
# [14] = Preemergence, 62 g ai/ha, scale of 0 to 100, 0 is no effect, 100 is complete control
# [15] = Preemergence, 125 g ai/ha, scale 0 to 100, 0 no effect, 100 complete control
# [16] = Preemergence, 250 g ai/ha, scale 0 to 100, 0 no effect, 100 complete control
# [17] = Preemergence, 62 g ai/ha, scale 0 to 100, 0 no effect, 100 complete control
smiles,measurement,setting,value
Cc1nn(-c2ccc(C(F)(F)F)cn2)nc1Oc1ccnc(C(F)(F)F)c1 [Compound 23],"Plant response rating, Galium",[1]; [9],85
same,"Plant response rating, Galium",[1]; [10],85
same,"Plant response rating, Galium",[1]; [11],90
same,"Plant response rating, Galium",[1]; [12],90
same,"Plant response rating, Galium",[1]; [13],80
same,"Plant response rating, Galium",[1]; [14],95
same,"Plant response rating, Galium",[1]; [15],100
same,"Plant response rating, Galium",[1]; [16],100
same,Pigweed plant response rating,"[2]; Postemergence, 125 g ai/ha, 0 to 100 scale, 0 is no effect, 100 is complete control",100
same,Pigweed plant response rating,"[2]; Postemergence, 500 g ai/ha, visual rating on 0 to 100 scale (0 no effect, 100 complete control), approximately ten days",100
same,"Plant response rating, Pigweed","[2]; Preemergence, 125 g ai/ha, 0 to 100 scale (0 no effect, 100 complete control)",100
same,"Plant response rating, Pigweed","[2]; Preemergence, 500 g ai/ha, 0 to 100 scale, 0 is no effect, 100 is complete control",100
same,"Plant response rating, Morningglory",[3]; [9],70
same,"Plant response rating, Morningglory",[3]; [10],70
same,"Plant response rating, Morningglory",[3]; [11],90
same,"Plant response rating, Morningglory",[3]; [12],90
same,"Plant response rating, Morningglory",[3]; [13],20
same,"Plant response rating, Morningglory",[3]; [14],20
same,"Plant response rating, Morningglory",[3]; [15],100
same,"Plant response rating, Morningglory",[3]; [16],100
same,"Plant response rating, Oat, Wild",wild oat (Avena fatua); [9],5
same,"Plant response rating, Oat, Wild",wild oat (Avena fatua); [10],10
same,"Plant response rating, Oat, Wild",wild oat (Avena fatua); [11],35
same,"Plant response rating, Oat, Wild",wild oat (Avena fatua); [12],35
same,"Plant response rating, Oat, Wild",wild oat (Avena fatua); [13],45
same,"Plant response rating, Oat, Wild",wild oat (Avena fatua); [14],80
same,"Plant response rating, Oat, Wild",wild oat (Avena fatua); [15],80
same,"Plant response rating, Oat, Wild",wild oat (Avena fatua); [16],100
same,"Plant response rating, Nutsedge, Yellow",[4]; [9],10
same,"Plant response rating, Nutsedge, Yellow",[4]; [10],10
same,"Plant response rating, Nutsedge, Yellow",[4]; [11],10
same,"Plant response rating, Nutsedge, Yellow",[4]; [12],10
same,"Plant response rating, Nutsedge, Yellow",[4]; [13],5
same,"Plant response rating, Nutsedge, Yellow",[4]; [14],10
same,"Plant response rating, Nutsedge, Yellow",[4]; [15],35
same,"Plant response rating, Nutsedge, Yellow",[4]; [16],55
same,"Plant response rating, Wheat",[5]; [9],10
same,"Plant response rating, Wheat",[5]; [10],10
same,"Plant response rating, Wheat",[5]; [11],15
same,"Plant response rating, Wheat",[5]; [12],30
same,"Plant response rating, Wheat",[5]; [13],0
same,"Plant response rating, Wheat",[5]; [14],0
same,"Plant response rating, Wheat",[5]; [15],20
same,"Plant response rating, Wheat",[5]; [16],35
same,"Plant response rating, Blackgrass",[6]; [9],15
same,"Plant response rating, Blackgrass",[6]; [10],20
same,"Plant response rating, Blackgrass",[6]; [11],20
same,"Plant response rating, Blackgrass",[6]; [12],25
same,"Plant response rating, Blackgrass",[6]; [13],5
same,"Plant response rating, Blackgrass",[6]; [17],85
same,"Plant response rating, Blackgrass",[6]; [15],100
same,"Plant response rating, Blackgrass",[6]; [16],100
same,"Plant response rating, Pigweed",[7]; [9],70
same,"Plant response rating, Pigweed",[7]; [11],80
same,"Plant response rating, Pigweed",[7]; [12],95
same,"Plant response rating, Pigweed",[7]; [13],100
same,"Plant response rating, Pigweed",[7]; [14],100
same,"Plant response rating, Pigweed",[7]; [15],100
same,"Plant response rating, Pigweed",[7]; [16],100
same,"Plant response rating, Ragweed",[8]; [9],10
same,"Plant response rating, Ragweed",[8]; [10],10
same,"Plant response rating, Ragweed",[8]; [11],20
same,"Plant response rating, Ragweed",[8]; [12],20
same,"Plant response rating, Ragweed",[8]; [13],5
same,"Plant response rating, Ragweed",[8]; [14],20
same,"Plant response rating, Ragweed",[8]; [15],20
same,"Plant response rating, Ragweed",[8]; [16],60
"FC(F)(F)COc1nn(-c2ccc(C(F)(F)F)cc2)nc1Cc1ccnc(C(F)(F)F)c1 [Compound 14, 4-[[5-(2,2,2-trifluoroethoxy)-2-[4-(trifluoromethyl)phenyl]-2H-1,2,3-triazol-4-yl]methyl]-2-(trifluoromethyl)pyridine]","Plant response rating, Galium",[1]; [9],60
same,"Plant response rating, Galium",[1]; [10],80
same,"Plant response rating, Galium",[1]; [11],80
same,"Plant response rating, Galium",[1]; [12],80
same,"Plant response rating, Galium",[1]; [13],20
same,"Plant response rating, Galium",[1]; [14],90
same,"Plant response rating, Galium",[1]; [15],100
same,"Plant response rating, Galium",[1]; [16],100
same,pest or weed control at 125 g/ha,"[2]; post-emergence, Postemergence, 125 g ai/ha, 0 to 100 scale, 0 is no effect, 100 is complete control, read-out: Pigweed plant response rating",100%
same,pest or weed control at 500 g/ha,"[2]; post-emergence, Postemergence, 500 g ai/ha, visual rating on 0 to 100 scale (0 no effect, 100 complete control), approximately ten days, read-out: Pigweed plant response rating",100%
same,pest or weed control at 125 g/ha,"[2]; pre-emergence, Preemergence, 125 g ai/ha, 0 to 100 scale (0 no effect, 100 complete control), read-out: Plant response rating, Pigweed",90%
same,pest or weed control at 500 g/ha,"[2]; pre-emergence, Preemergence, 500 g ai/ha, 0 to 100 scale, 0 is no effect, 100 is complete control, read-out: Plant response rating, Pigweed",100%
same,"Plant response rating, Morningglory",[3]; [9],75
same,"Plant response rating, Morningglory",[3]; [10],80
same,"Plant response rating, Morningglory",[3]; [11],80
same,"Plant response rating, Morningglory",[3]; [12],95
same,"Plant response rating, Morningglory",[3]; [13],10
same,"Plant response rating, Morningglory",[3]; [14],10
same,"Plant response rating, Morningglory",[3]; [15],55
same,"Plant response rating, Morningglory",[3]; [16],65
same,"Plant response rating, Oat, Wild",wild oat (Avena fatua); [9],25
same,"Plant response rating, Oat, Wild",wild oat (Avena fatua); [10],45
same,"Plant response rating, Oat, Wild",wild oat (Avena fatua); [11],50
same,"Plant response rating, Oat, Wild",wild oat (Avena fatua); [12],60
same,"Plant response rating, Oat, Wild",wild oat (Avena fatua); [13],20
same,"Plant response rating, Oat, Wild",wild oat (Avena fatua); [14],40
same,"Plant response rating, Oat, Wild",wild oat (Avena fatua); [15],70
same,"Plant response rating, Oat, Wild",wild oat (Avena fatua); [16],90
same,"Plant response rating, Nutsedge, Yellow",[4]; [9],0
same,"Plant response rating, Nutsedge, Yellow",[4]; [10],0
same,"Plant response rating, Nutsedge, Yellow",[4]; [11],0
same,"Plant response rating, Nutsedge, Yellow",[4]; [12],0
same,"Plant response rating, Nutsedge, Yellow",[4]; [13],0
same,"Plant response rating, Nutsedge, Yellow",[4]; [14],0
same,"Plant response rating, Nutsedge, Yellow",[4]; [15],0
same,"Plant response rating, Nutsedge, Yellow",[4]; [16],0
same,"Plant response rating, Wheat",[5]; [9],30
same,"Plant response rating, Wheat",[5]; [10],35
same,"Plant response rating, Wheat",[5]; [11],40
same,"Plant response rating, Wheat",[5]; [12],45
same,"Plant response rating, Wheat",[5]; [13],0
same,"Plant response rating, Wheat",[5]; [14],15
same,"Plant response rating, Wheat",[5]; [15],35
same,"Plant response rating, Wheat",[5]; [16],45
same,"Plant response rating, Blackgrass",[6]; [9],15
same,"Plant response rating, Blackgrass",[6]; [10],40
same,"Plant response rating, Blackgrass",[6]; [11],60
same,"Plant response rating, Blackgrass",[6]; [12],85
same,"Plant response rating, Blackgrass",[6]; [13],5
same,"Plant response rating, Blackgrass",[6]; [17],40
same,"Plant response rating, Blackgrass",[6]; [15],85
same,"Plant response rating, Blackgrass",[6]; [16],98
same,"Plant response rating, Pigweed",[7]; [9],45
same,"Plant response rating, Pigweed",[7]; [10],60
same,"Plant response rating, Pigweed",[7]; [11],80
same,"Plant response rating, Pigweed",[7]; [12],85
same,"Plant response rating, Pigweed",[7]; [13],100
same,"Plant response rating, Pigweed",[7]; [14],100
same,"Plant response rating, Pigweed",[7]; [15],100
same,"Plant response rating, Pigweed",[7]; [16],100
same,"Plant response rating, Ragweed",[8]; [9],55
same,"Plant response rating, Ragweed",[8]; [10],55
same,"Plant response rating, Ragweed",[8]; [11],60
same,"Plant response rating, Ragweed",[8]; [12],80

# Reference: patent US9302999B2, “Substituted triazoles as herbicides” (E. I. DU PONT DE NEMOURS AND COMPANY, priority 2012, dated 2016)
